Source: paper PMC6925188, “PBRM1 acts as a p53 lysine-acetylation reader to suppress renal tumor growth” (Nature Communications, 2019)
Where no end group is shown, it is not given here. The star is where a group is joined. Biotin = O=C1N[C@H]2[C@H](CS[C@H]2CCCCC(=O)*)N1

Experiments:
PBRM1-p53 interaction = experiment: Co-immunoprecipitation of Flag-PBRM1 and Myc-p53 (anti-Flag M2) in H1299 cells; type: cell-based
From the text: Fig. 1 PBRM1 and p53 display a physical association that is enhanced after DNA damage. a U2OS cells (left) and HEK293T cells (right) were transfected with vector or Flag-PBRM1 and harvested for immunoprecipitation with Flag-M2 beads and elution with 3X Flag peptide. […] Lysates were subjected to immunoprecipitation with Flag-M2 beads. […] Lysates were immunoprecipitated with p53 antibody. The bound PBRM1 and p53 were examined by immunoblots. Source data are provided as a Source Data file.
For anti-Flag immunoprecipitation, cell pellets harvested from one 10 cm culture dish were resuspended in 500 µl hypotonic buffer (10 mM Tris-HCl, pH 8.0, 1.5 mM MgCl2, 10 mM KCl) with protease and phosphatase inhibitors, 2 μM TSA and 10 mM NAM, and samples were incubated on ice for 15 min. Twenty-five microliters of Triton X-100 was added and samples were vortexed for 10 s. After centrifuging for 30 s at 14,000 × g, supernatants were removed and pellets were resuspended in 100 µl hypertonic buffer (20 mM Tris-HCl pH 8.0, 420 mM KCl, 1.5 mM MgCl2, 20% (v/v) glycerol) with protease and phosphatase inhibitors, 2 μM TSA and 10 mM NAM and vortexed for 10 s. Pellets were incubated on ice for 40 min and vortexed for 15 s every 10 min. After centrifuging for 10 min at 14,000 × g, supernatants were collected and diluted with 300 µl EBC buffer (50 mM Tris-HCl (pH 7.5), 120 mM NaCl, 0.5% NP-40) with protease and phosphatase inhibitors, 2 μM TSA and 10 mM NAM. […] Beads were washed four times with EBC buffer and eluted with 3X Flag peptide (F4799, Sigma-Aldrich) overnight at 4 °C. The input and Flag-elution were analyzed by SDS-PAGE and immunoblot.
Supplementary Figure 2. […]
a. Vectors, Flag-PBRM1 or Myc-p53 were transfected into H1299 cells as indicated, and treated with 5 µM nicotinamide or vehicle. Lysates were used for anti-Flag immunoprecipitation and 3X Flag peptide elution. The inputs and eluates were immunoblotted with the indicated antibodies. […]
Flag-PBRM1, wildtype or K382Q mutated Myc-p53 were transfected into H1299 cells with indicated combinations. Lysates were used for anti-Flagimmunoprecipitation followed by Flag peptide elution. […]

[1] = tested on: ACHN, Caki-1 and Ren-01 cells; experiment: Immunoblot of p53 targets, kidney cancer cells with PBRM1 shRNA knockdown; type: cell-based; settings: 10 μM Nutlin-3a
Procedure: Lysates were analyzed by immunoblots. c RCC4 cells with or without p53 KO were transfected with vector or Flag-PBRM1 at the indicated amounts. […] Cells were harvested for RT-qPCR (g) or ChIP followed by qPCR (h). […] Representative data is shown in i. Quantification of cell cycle phase is shown in j. Source data are provided as a Source Data file.
After washing with ice-cold PBS, cells were scraped on ice and centrifuged at 10,000 × g for 1 min at 4 °C. For immunoblot analysis, cell pellets were lysed in 1% SDS containing a protease inhibitor cocktail followed by sonication with a FB50 sonic dismembrator (Fisher Scientific) at 20% amplitude for 15 s twice. After centrifuging for 10 min at 14,000 × g, the supernatants were combined with 5X SDS loading buffer (5% mercaptoethanol, 0.05% Bromophenol blue, 30% glycerol, 10% SDS, 250 mM Tris-HCl (pH 6.8)), boiled for 5 min and used in SDS-PAGE. After standard western blot procedures, the blots were developed using the ImageQuant LAS 4000 (GE healthcare Life Sciences) or ChemiDoc MP Imaging System (Bio-rad) with HyGLO™ Chemiluminescent HRP Detection Reagent (E2500, Denville Scientific) or Immobilon™ Western Chemiluminescent HRP Substrate (WBKLS0500, Millipore). […]
the indicated times. Lysates were analyzed via immunoblots. b. […]
were analyzed by immunoblots. c. […]
Lysates were analyzed via immunoblots. e. […]
Lysates were analyzed via immunoblots. f, g, h. […]

endogenous PBRM1 = experiment: Peptide pull-down, endogenous PBRM1 from cell lysates; type: binding; settings: H1299 lysate, Supplementary Fig. 2e, f
Procedure: Fig. 2 Acetylation on K382 of p53 promotes PBRM1 binding. a Schematic depiction of the functional domains of p53 and truncated constructs. FL full-length, TAD transactivation domain, PRD proline-rich domain, DBD DNA-binding domain, TD tetramerization domain, CTD C-terminal domain. b HEK293T cells were transfected with vectors, Flag-PBRM1, Myc-p53 and Myc-p53 truncated constructs. After immunoprecipitation with Flag-M2 beads, the inputs and eluates were analyzed by immunoblots. c Vectors, Flag-PBRM1, Myc-p53 and HA-Tip60, HA-PCAF, HA-CBP or HA-p300 were transfected into HEK293T cells as indicated. Lysates were used for anti-Flag immunoprecipitation and 3X Flag peptide elution. The inputs and eluates were analyzed by immunoblots. d HEK293T cells were transfected with Flag-PBRM1, Myc-p53 and HA-p300. The amount of HA-p300 was titrated as indicated. Lysates were used in immunoprecipitations with Flag-M2 beads, and inputs and eluates were analyzed by immunoblots. e Vectors, Flag-PBRM1, HA-p300 and Myc-p53 (WT) or Myc-p53 6KR mutant were transfected into HEK293T cells as indicated. Lysates were used for anti-Flag immunoprecipitation and 3X Flag peptide elution. Inputs and eluates were examined by immunoblots. […] The peptides were pulled down with streptavidin beads and the associated proteins were analyzed by immunoblots. […]

BDs of PBRM1 = settings: shorter peptide, residues 375–388, 14 residues; cited from earlier work
From the text: Although acetylation is indispensable for p53′s transcriptional function and SWI/SNF complexes function as transcriptional co-factors, no acetylation-dependent interaction has been reported between p53 and SWI/SNF complexes. In this study, we report that acetylation on p53 lysine 382 enhanced the interaction between PBRM1 and p53 via recognition by PBRM1 BD4. […] The difference is likely due to the length of the peptides used. In our experiments, the p53 peptide used was much longer than theirs (368–393, 26 re ...

NC(=O)c1cccnc1 [Nicotinamide]
PBRM1-p53 interaction (PBRM1-p53 interaction; H1299, 5 µM nicotinamide): enhanced

COc1ccc(C2=N[C@@H](c3ccc(Cl)cc3)[C@@H](c3ccc(Cl)cc3)N2C(=O)N2CCNC(=O)C2)c(OC(C)C)c1 [Nutlin-3a]
p21 induction by p53 with PBRM1 knockdown [1]: reduced

K382Q: Biot-K382Q (368-393) p53 peptide (Biotin-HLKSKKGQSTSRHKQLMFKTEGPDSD; UniProt P04637 368-393, looked up, variant K382Q)
binding to PBRM1 of K382Q peptide (endogenous PBRM1): failed to mimic K382Ac to enhance binding to PBRM1

bleomycin
PBRM1 and exogenous p53 protein levels (PBRM1-p53 interaction; H1299, etoposide 50 μM or bleomycin 10 μg/ml): neither the PBRM1 nor the exogenous p53 levels changed
PBRM1-p53 interaction (PBRM1-p53 interaction; H1299 co-transfected with PBRM1 and p53, bleomycin 10 μg/ml): enhanced

p53 K382Ac peptide (375–388): p53 K382Ac peptide of previous report, 375–388, 14 residues (QSTSRHKK(Ac)LMFKTE; not fully specified; UniProt P04637 375-388, looked up, fragment)
binding of PBRM1 BDs to p53 K382Ac peptide (BDs of PBRM1): did not bind
